Source: patent US7473682B2, “Angiogenic peptides and uses thereof” (Ramot at Tel Aviv University Ltd., priority 2003, dated 2009)

Tested on: ECs (HUVECs)
Test: FACS binding of FITC-labeled synthetic peptides to ECs
Set-up: species or system human
Details: 6 μg FITC labeled peptide, 10^5 ECs, 2 hours
Experimental: Fluorescein labeling of synthetic peptides—Fluorescein Isothiocyanate (FTIC, Pierce, Rockford, Ill.) is an amino-reactive probe that reacts in an alkine environment with primary amines to form a stable fluorescent derivative. 12.5 μl of FITC (10 mg/ml) were added per 1 mg of peptide diluted in 0.5 M bicarbonate buffer (pH 9.5) and agitated in the dark for 2 hours. 0.1 ml of 1.5 M hydroxilamine was then added per 1 ml of reaction mixture and agitated for an additional 30 minutes at room temperature. Unbound FITC was removed by dialysis in the presence of PBS.
Peptide binding to ECs—ECs were cultured in M199 supplemented with 10% FCS. For peptide binding assays, the cells were trypsinized and 10^5 cells were suspended in PBS supplemented with 5% FCS and 0.1% sodium azide. Cells were incubated for 2 hours (on ice, in the dark) in the presence of 1-6 μg of FITC-labeled peptides, following which the stained cells were washed twice with PBS. Samples were analyzed by FACS (FACScan, Becton Dickinson, San Jose, Calif., USA). For control, 0.5×10^6 of PBLs were utilized.
FACS analysis of peptide binding to ECs with and without hypoxia treatment—ECs were exposed to hypoxia conditions and then prepared for FACS analysis as described in Example 3, hereinabove. […] Samples were analyzed by Fluorescence Activated Cell Sorter (FACScan Beckton Dickinson, Calif., USA).

## LLADTTHHRPWT (Phage displayed peptide) [LT]
  Binding to ECs exposed to hypoxia compared with normoxia: increased binding

## SAHGTSTGVPWP (Phage displayed peptide)
  Binding to ECs exposed to hypoxia compared with normoxia: increased binding
